This is an account of results in publication PMC12299168 (Pharmaceutics, 2025).

Structures are written as SMILES. Like-named read-outs stand apart in the source and are kept apart here.

Data set [1] relates to flare and wheal suppression. The conditions noted are these: children aged 6–11 years; cited from earlier work.
The subject of data set [2] is porcine liver esterase (PLE). Kind of data set: Hydrolysis of prodrug in porcine liver esterase (PLE). It is filed as in vitro ADME. The conditions noted are these: for first-order rate constant (kobs): during 6 h; for half-life at 0.25 mg/mL (LCZ 2HCl Eq.): pig, porcine liver esterase (PLE) solution, 10% DMSO, 37 °C, read-out: T1/2 (time required for 50% degradation of prodrug) (converted). As for the experimental part: The ester bond cleavage assay was adapted from reference, with minor modifications, and carried out using PLE to evaluate the hydrolytic ratio (n = 3). […] At 0, 1, 2, 4, 6 and 24 h, the aliquot (100 μL) was collected using a 28 G syringe, and then immediately diluted 10-fold with a solvent composed of Acetonitrile:DW = 90:10 (v/v) to stop enzymatic action. The elution was replenished with an equal concentration and volume of fresh esterase solution. The diluted samples were filtered through a double 0.45 μm PTFE syringe filter. The filtrates were analyzed for their prodrug and LCZ content by HPLC to determine the conversion of the prodrug to LCZ.
(§1) Esterase, plasma hydrolysis and chemical stability studies were performed using the HPLC method. The HPLC equipment used was Infinity 1260 (Agilent, CA) fitted with a quaternary pump, an autosampler, a UV detector set at a wavelength of 230 nm and a column compartment maintained at 20 °C. The sample was eluted from a Fortis C18 (150 × 4.6 mm, 5 μm particle size) (Fortis, Neston, UK) analytical column using Acetonitrile:distilled water:sulfuric acid (90:9.6:0.4, v/v). The mobile phase was pumped isocratically at a flow rate of 1 mL/min with a 20 μL injection volume.

Data set [3] can be described thus: Hydrolysis of prodrugs in rat plasma. Format: in vitro ADME. The note with it: 37 °C, during 6 h. As for the experimental part:
First, 100 μL of stock solution was added to 3.9 mL of heparinized rat plasma (n = 3). The samples were incubated at 37 °C in a shaking chamber (100 rpm). At 0, 1, 2, 4, 6 and 24 h, the aliquot (100 μL) was collected, and then immediately diluted 10-fold with a solvent composed of Acetonitrile:DW = 90:10 (v/v) to precipitate the protein. An equal volume of fresh rat plasma was replenished after each sampling. The samples were centrifuged at 5000 rpm for 10 min and the supernatants were filtered through a double 0.45 μm PTFE syringe filter. The filtrates were analyzed for their prodrug and LCZ content by HPLC to determine the conversion of the prodrug to LCZ.
as §1

On to `O=C(O)COCCN1CCN([C@H](c2ccccc2)c2ccc(Cl)cc2)CC1` [LCZ, Levocetirizine], for which, in data set [1], the “EC50 for flare suppression” value is listed as 1.4 ± 0.1 ng/mL and the “EC50 for wheal suppression” value is recorded as 16.1 ± 2.2 ng/mL.

For `CCCCCCCCCCOC(=O)COCCN1CCN([C@@H](c2ccccc2)c2ccc(Cl)cc2)CC1` [LCZ-D, Levocetirizine decanoate], the “first-order rate constant (kobs)” value is 0.201 h⁻¹ in data set [2] (PLE 0.2 units/mL), 0.253 h⁻¹ in data set [2] (PLE 0.5 units/mL), 0.580 h⁻¹ in data set [2] (PLE 2.0 units/mL) and 0.229 h⁻¹ in data set [3]. In addition, the values for the half-life at 0.25 mg/mL (LCZ 2HCl Eq.) in data set [2] (PLE 0.2 unit/mL), in data set [2] (PLE 0.5 unit/mL) and in data set [2] (PLE 2.0 unit/mL) were 4 h, 3 h and about 1 h, respectively.

As for `CCCCCCCCCCCCOC(=O)COCCN1CCN([C@@H](c2ccccc2)c2ccc(Cl)cc2)CC1` [LCZ-L, Levocetirizine laurate], the “first-order rate constant (kobs)” value in data set [2] (PLE 0.2 units/mL) came out at 0.127 h⁻¹; in data set [2] (PLE 0.5 units/mL) it was 0.165 h⁻¹; in data set [2] (PLE 2.0 units/mL) it was 0.498 h⁻¹; in data set [3], 0.157 h⁻¹. For the same compound, the half-life at 0.25 mg/mL (LCZ 2HCl Eq.) was 5 h in data set [2] (PLE 0.2 unit/mL), 4 h in data set [2] (PLE 0.5 unit/mL) and about 2 h in data set [2] (PLE 2.0 unit/mL).
